Test results published in ChEMBL document CHEMBL1153550, “In vitro study of Candida tropicalis isolates exhibiting paradoxical growth in the presence of high concentrations of caspofungin” (2007).
Values after ≈ are worked out from the molar mass of the structure shown.

Assays:
Assay type in all cases: functional
Candida tropicalis [1] = assay: Antifungal activity against Candida tropicalis isolate 4 in RPMI 1640 medium by broth dilution susceptibility test
Candida tropicalis [2] = assay: Antifungal activity against Candida tropicalis isolate 5 in RPMI 1640 medium by broth dilution susceptibility test
Candida tropicalis [3] = assay: Antifungal activity against Candida tropicalis isolate 8 in RPMI 1640 medium by broth dilution susceptibility test
Candida tropicalis [4] = assay: Antifungal activity against Candida tropicalis isolate 7 in RPMI 1640 medium by broth dilution susceptibility test
Candida tropicalis [5] = assay: Antifungal activity against Candida tropicalis ATCC 750 in RPMI 1640 medium by broth dilution susceptibility test
Candida tropicalis [6] = assay: Antifungal activity against Candida tropicalis isolate 13 in RPMI 1640 medium by broth dilution susceptibility test
Candida tropicalis [7] = assay: Antifungal activity against Candida tropicalis isolate 6 in RPMI 1640 medium by broth dilution susceptibility test
Candida tropicalis [8] = assay: Antifungal activity against Candida tropicalis isolate 15 in RPMI 1640 medium by broth dilution susceptibility test

| SMILES | MIC (Candida tropicalis [1]) [µg/mL] | MIC (Candida tropicalis [2]) [µg/mL] | MIC (Candida tropicalis [3]) [µg/mL] | MIC (Candida tropicalis [4]) [µg/mL] | MIC (Candida tropicalis [5]) [µg/mL] | MIC (Candida tropicalis [6]) [µg/mL] | MIC (Candida tropicalis [7]) [µg/mL] | MIC (Candida tropicalis [8]) [µg/mL] |
| --- | --- | --- | --- | --- | --- | --- | --- | --- |
| Nc1nc(=O)[nH]cc1F [FLUCYTOSINE] | 0.12 (≈ 0.93 µM) | 0.12 (≈ 0.93 µM) | 0.12 (≈ 0.93 µM) | 0.12 (≈ 0.93 µM) | 0.12 (≈ 0.93 µM) | 0.12 (≈ 0.93 µM) | 0.12 (≈ 0.93 µM) | 0.12 (≈ 0.93 µM) |
| OC(Cn1cncn1)(Cn1cncn1)c1ccc(F)cc1F [FLUCONAZOLE] | 0.5 (≈ 1.63 µM) | 0.25 (≈ 0.816 µM) | 0.5 (≈ 1.63 µM) | 0.25 (≈ 0.816 µM) | 1 (≈ 3.27 µM) | 0.5 (≈ 1.63 µM) | 0.25 (≈ 0.816 µM) | 0.25 (≈ 0.816 µM) |
| C[C@@H]1[C@H](O)[C@@H](C)/C=C/C=C/C=C/C=C/C=C/C=C/C=C/[C@H](O[C@@H]2O[C@H](C)[C@@H](O)[C@H](N)[C@@H]2O)C[C@@H]2O[C@](O)(C[C@@H](O)C[C@@H](O)[C@H](O)CC[C@@H](O)C[C@@H](O)CC(=O)O[C@H]1C)C[C@H](O)[C@H]2C(=O)O [AMPHOTERICIN B] | 2 (≈ 2.16 µM) | 2 (≈ 2.16 µM) | 2 (≈ 2.16 µM) | 2 (≈ 2.16 µM) | 1 (≈ 1.08 µM) | 2 (≈ 2.16 µM) | 2 (≈ 2.16 µM) | 2 (≈ 2.16 µM) |
